Active and inactive are the calls of the source. The rule behind the calls is not given here.
Assays:
[1] = biological target: T1, Glutaryl-CoA dehydrogenase, mitochondrial (Homo sapiens, UniProt Q92947); assay: Binding affinity to GCDH in human HepG2 assessed as intensity fold change of cumulated normalized intensity of protein between capture and competition assay at 100 uM after 1 hr in presence of active Tcp-CC-13 by differential competition capture compound mass spectrometry; format: ADME
T1 sequence (Q92947 whole entry): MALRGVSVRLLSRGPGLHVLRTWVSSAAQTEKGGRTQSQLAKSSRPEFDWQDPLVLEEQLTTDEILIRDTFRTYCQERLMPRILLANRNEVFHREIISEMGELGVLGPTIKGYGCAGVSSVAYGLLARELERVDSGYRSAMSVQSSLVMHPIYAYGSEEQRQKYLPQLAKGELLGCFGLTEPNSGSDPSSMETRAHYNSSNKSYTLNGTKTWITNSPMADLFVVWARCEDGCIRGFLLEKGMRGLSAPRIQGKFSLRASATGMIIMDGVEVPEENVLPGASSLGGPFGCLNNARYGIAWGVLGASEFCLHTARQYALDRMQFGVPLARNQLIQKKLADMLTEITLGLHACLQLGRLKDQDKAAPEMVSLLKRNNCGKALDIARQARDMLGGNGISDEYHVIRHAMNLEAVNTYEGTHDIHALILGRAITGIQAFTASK

[2] = biological target: T2, Acireductone dioxygenase (Homo sapiens, UniProt Q9BV57); assay: Binding affinity to ADL1 in human HepG2 assessed as intensity fold change of cumulated normalized intensity of protein between capture and competition assay at 100 uM after 1 hr in presence of active Tcp-CC-13 by differential competition capture compound mass spectrometry; format: ADME
T2 sequence (Q9BV57 whole entry): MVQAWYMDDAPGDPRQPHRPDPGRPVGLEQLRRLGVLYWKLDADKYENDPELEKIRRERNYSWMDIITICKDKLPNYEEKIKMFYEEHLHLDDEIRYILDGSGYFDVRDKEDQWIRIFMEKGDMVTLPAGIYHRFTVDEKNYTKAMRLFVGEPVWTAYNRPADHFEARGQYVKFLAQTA

[3] = biological target: T3, 3-hydroxyisobutyryl-CoA hydrolase, mitochondrial (Homo sapiens) (UniProt Q6NVY1); assay: Binding affinity to human recombinant HIBCH assessed as intensity fold change of cumulated normalized intensity of protein between capture and competition assay at 100 uM after 1 hr in presence of inactive Tcp-CC-14 by differential competition capture compound mass spectrometry
T3 sequence (whole entry): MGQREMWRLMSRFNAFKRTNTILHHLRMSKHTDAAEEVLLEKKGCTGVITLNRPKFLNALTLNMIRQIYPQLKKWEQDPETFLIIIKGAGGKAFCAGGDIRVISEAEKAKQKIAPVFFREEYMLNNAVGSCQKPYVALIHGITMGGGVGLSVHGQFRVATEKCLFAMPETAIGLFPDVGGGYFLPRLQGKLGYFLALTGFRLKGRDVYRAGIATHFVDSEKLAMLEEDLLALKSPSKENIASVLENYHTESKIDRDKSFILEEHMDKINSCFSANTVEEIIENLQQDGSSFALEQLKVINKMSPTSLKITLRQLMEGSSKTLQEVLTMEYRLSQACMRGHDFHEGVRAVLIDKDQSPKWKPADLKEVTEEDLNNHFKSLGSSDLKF

[4] = tested on: HepG2; assay: Mitochondrial toxicity in human HepG2 cells assessed as mitochondrial membrane potential levels at 50 uM by TMRE-based mitochondria membrane potential assay relative to control; format: cell-based; conditions: hepg2, 50 µM
[5] = biological target: T4, Pyridoxal kinase (Homo sapiens, UniProt O00764); assay: Binding affinity to PDXK in human HepG2 assessed as intensity fold change of cumulated normalized intensity of protein between capture and competition assay at 100 uM after 1 hr in presence of inactive Tcp-CC 14 by differential competition capture compound mass spectrometry; format: ADME
T4 sequence (O00764 whole entry): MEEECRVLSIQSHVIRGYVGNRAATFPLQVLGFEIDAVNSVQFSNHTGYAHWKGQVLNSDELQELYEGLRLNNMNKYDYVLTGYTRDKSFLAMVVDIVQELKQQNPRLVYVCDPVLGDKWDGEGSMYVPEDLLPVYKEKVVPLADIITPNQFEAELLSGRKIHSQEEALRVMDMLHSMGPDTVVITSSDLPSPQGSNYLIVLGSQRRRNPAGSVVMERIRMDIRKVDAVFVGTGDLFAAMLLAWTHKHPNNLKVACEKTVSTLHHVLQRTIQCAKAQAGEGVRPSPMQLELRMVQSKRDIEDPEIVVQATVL

[6] = biological target: Kynurenine--oxoglutarate transaminase 3 (Homo sapiens, UniProt Q6YP21); assay: Binding affinity to CCBL2 in human HepG2 assessed as intensity fold change of cumulated normalized intensity of protein between capture and competition assay at 100 uM after 1 hr in presence of active Tcp-CC-13 by differential competition capture compound mass spectrometry; format: ADME
[7] = tested on: HepG2; assay: Mitochondrial toxicity in human HepG2 cells assessed as mitochondrial membrane potential levels at 100 uM by TMRE-based mitochondria membrane potential assay relative to control; format: cell-based; conditions: hepg2, 100 µM
[8] = biological target: T5, Protein NipSnap homolog 3A (Homo sapiens, UniProt Q9UFN0); assay: Binding affinity to NIPSNAP3A in human HepG2 assessed as intensity fold change of cumulated normalized intensity of protein between capture and competition assay at 100 uM after 1 hr in presence of inactive Tcp-CC 14 by differential competition capture compound mass spectrometry; format: ADME
T5 sequence (Q9UFN0 whole entry): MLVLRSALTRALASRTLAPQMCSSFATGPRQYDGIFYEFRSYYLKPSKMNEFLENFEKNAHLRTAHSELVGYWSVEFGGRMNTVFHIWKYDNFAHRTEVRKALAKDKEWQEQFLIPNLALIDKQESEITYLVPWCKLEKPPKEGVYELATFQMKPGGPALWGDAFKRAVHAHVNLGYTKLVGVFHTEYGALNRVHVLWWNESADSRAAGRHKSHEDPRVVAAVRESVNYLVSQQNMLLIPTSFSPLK

[9] = biological target: Aldo-keto reductase family 1 member B10 (Homo sapiens, UniProt O60218); assay: Binding affinity to AKR1B10 in human HepG2 assessed as intensity fold change of cumulated normalized intensity of protein between capture and competition assay at 100 uM after 1 hr in presence of inactive Tcp-CC 14 by differential competition capture compound mass spectrometry; format: ADME
[10] = biological target: T3, 3-hydroxyisobutyryl-CoA hydrolase, mitochondrial (Homo sapiens); assay: Binding affinity to human recombinant HIBCH assessed as intensity fold change of cumulated normalized intensity of protein between capture and competition assay at 100 uM after 1 hr in presence of active Tcp-CC-13 by differential competition capture compound mass spectrometry
[11] = biological target: T6, Catechol O-methyltransferase (Homo sapiens, UniProt P21964); assay: (§1) Inhibition of human recombinant His-tagged soluble COMT expressed in Escherichia coli BL21 using aesculetin as substrate after 60 mins by microplate assay in presence of SAM
T6 sequence (P21964 whole entry): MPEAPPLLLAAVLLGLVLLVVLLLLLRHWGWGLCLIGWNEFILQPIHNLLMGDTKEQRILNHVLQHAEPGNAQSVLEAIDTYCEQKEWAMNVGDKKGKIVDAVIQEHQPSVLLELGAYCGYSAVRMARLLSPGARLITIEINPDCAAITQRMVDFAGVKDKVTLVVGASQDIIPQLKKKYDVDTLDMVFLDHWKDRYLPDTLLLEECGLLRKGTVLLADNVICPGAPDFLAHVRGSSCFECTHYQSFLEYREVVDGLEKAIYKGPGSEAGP

[12] = biological target: T7, Catechol O-methyltransferase (Homo sapiens) (UniProt P21964); assay: as §1
T7 sequence (whole entry): T6 sequence (P21964 whole entry)

Kynurenine--oxoglutarate transaminase 3, sequence (Q6YP21 whole entry): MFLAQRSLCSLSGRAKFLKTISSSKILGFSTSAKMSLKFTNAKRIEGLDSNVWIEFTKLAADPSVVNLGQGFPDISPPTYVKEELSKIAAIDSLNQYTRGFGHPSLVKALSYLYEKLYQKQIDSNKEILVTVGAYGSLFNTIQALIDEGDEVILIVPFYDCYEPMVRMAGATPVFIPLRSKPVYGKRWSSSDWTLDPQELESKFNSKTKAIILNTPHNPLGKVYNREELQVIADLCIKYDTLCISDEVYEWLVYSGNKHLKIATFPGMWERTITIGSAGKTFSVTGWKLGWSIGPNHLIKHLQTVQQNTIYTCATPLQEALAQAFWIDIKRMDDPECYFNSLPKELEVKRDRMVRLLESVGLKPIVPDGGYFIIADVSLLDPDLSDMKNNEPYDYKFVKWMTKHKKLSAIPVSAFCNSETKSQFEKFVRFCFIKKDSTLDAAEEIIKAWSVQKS
Aldo-keto reductase family 1 member B10, sequence (O60218 whole entry): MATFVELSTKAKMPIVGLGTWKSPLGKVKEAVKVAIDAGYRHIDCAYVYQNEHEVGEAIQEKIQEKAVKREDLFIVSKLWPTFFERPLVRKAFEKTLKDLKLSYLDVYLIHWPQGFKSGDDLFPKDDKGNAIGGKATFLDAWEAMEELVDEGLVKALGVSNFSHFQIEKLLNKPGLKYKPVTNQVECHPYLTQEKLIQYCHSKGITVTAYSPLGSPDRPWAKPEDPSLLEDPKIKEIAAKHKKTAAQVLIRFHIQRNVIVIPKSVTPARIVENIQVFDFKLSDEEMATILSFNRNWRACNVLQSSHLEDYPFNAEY

CCN(CC)C(=O)c1cc2cc(O)c(O)c([N+](=O)[O-])c2cc1C(=O)N(CC)CC
fold change (FC) [1]: 5.9 | fold change (FC) [2]: 3.67 | Activity [3]: inactive | Activity [4]: < 20% | fold change (FC) [5]: 16 | fold change (FC) [6]: 3.05 | Activity [7]: 0% | fold change (FC) [8]: 7.5 | fold change (FC) [9]: 4.7 | fold change (FC) [10]: 5.35

CCN(CC)C(=O)/C(C#N)=C/c1cc(O)c(O)c([N+](=O)[O-])c1 [ENTACAPONE]
fold change (FC) [1]: 6.09 | fold change (FC) [2]: 2.38 | Activity [4]: > 50% | fold change (FC) [5]: 3.46 | fold change (FC) [6]: 8.63 | Activity [7]: 40% | fold change (FC) [8]: 2.11 | fold change (FC) [9]: 2.98 | fold change (FC) [10]: 1.04

CN(Cc1ccc(C(=O)c2cc(O)c(O)c([N+](=O)[O-])c2)cc1)C(=O)CCCCCNC(=O)C[C@H](NC(=O)c1ccc(N=[N+]=[N-])cc1)C(=O)NCCCOCCOCCOCCCNC(=O)CCCC[C@@H]1SC[C@@H]2NC(=O)N[C@@H]21
IC50 [11]: 648 nM

Cc1ccc(C(=O)c2cc(OCCCCNC(=O)C[C@H](NC(=O)c3ccc(N=[N+]=[N-])cc3)C(=O)NCCCOCCOCCOCCCNC(=O)CCCC[C@@H]3SC[C@@H]4NC(=O)N[C@@H]43)c(O)c([N+](=O)[O-])c2)cc1
inhibition [12]: inactive

Cc1ccc(C(=O)c2cc(O)c(O)c([N+](=O)[O-])c2)cc1 [TOLCAPONE]
fold change (FC) [1]: 5.82 | fold change (FC) [2]: 7.59 | Activity [3]: Active | Activity [4]: < 20% | fold change (FC) [5]: 2.4 | fold change (FC) [6]: 4.12 | Activity [7]: 0% | fold change (FC) [9]: 2.3 | fold change (FC) [10]: 14.2

CCN1C(=O)S/C(=C/c2cc(O)c(O)c([N+](=O)[O-])c2)C1=O
fold change (FC) [1]: 6.34 | fold change (FC) [2]: 4.29 | Activity [4]: > 50% | fold change (FC) [5]: 24.9 | fold change (FC) [6]: 3.4 | fold change (FC) [8]: 3 | IC50 [11]: 179 nM | fold change (FC) [9]: 3.1 | fold change (FC) [10]: 1
